These molecules were tested against Acetyl-CoA carboxylase 1 (Rattus norvegicus, UniProt P11497) (assay: Inhibitory concentration against rat heart ACC by the carboxylation of acetyl-CoA with [14C]-HCO3- to form [14C]-malonyl CoA; 18-40 uM).

Row | SMILES | IC50 [µM]
1 | CC/C(=N\OC/C=C/Cl)C1C(=O)CC(C2CCOCC2)CC1=O (stereo not given) [2-{1-[(E)-(E)-3-Chloro-allyloxyimino]-propyl}-3-hydroxy-5-(tetrahydro-pyran-4-yl)-cyclohex-2-enone] | 40
2 | CCSC(C)CC1CC(=O)C(/C(CC)=N/OC/C=C/Cl)C(=O)C1 (stereo not given) [clethodim] | 40
3 | CCC/C(=N\OCC)C1C(=O)CC(C2CCCSC2)CC1=O (stereo not given) [2-{1-[(E)-Ethoxyimino]-butyl}-3-hydroxy-5-(tetrahydro-thiopyran-3-yl)-cyclohex-2-enone] | 40
4 | CCC/C(=N\OCC)C1C(=O)CC(CC(C)SCC)CC1=O (stereo not given) [2-{1-[(E)-Ethoxyimino]-butyl}-5-(2-ethylsulfanyl-propyl)-3-hydroxy-cyclohex-2-enone] | 40
5 | CCO/N=C(\CC)C1C(=O)CC(c2c(C)cc(C)cc2C)CC1=O (stereo not given) [2-{1-[(E)-Ethoxyimino]-propyl}-3-hydroxy-5-(2,4,6-trimethyl-phenyl)-cyclohex-2-enone] | 40
